Assays:
[1] = read-out: Kd for glucose; cited from earlier work
[2] = oral phenylalanine load, Phe concentration in serum from capillary blood detected by aptamer; assay type: in vivo; conditions: 100 mg per kg body weight by mouth, 1 hr, FIG. 11B
Description: FIG. 11A-FIG. 11B is a chemical structure of PACp*Rh01 aptamer (SEQ ID NO: 53) reactive for Phe and cross-reactive for Trp and a scatter and line plot showing use thereof. FIG. 11A depicts the structure of an aptamer reactive for Phe and cross-reactive for Trp. FIG. 11B is a scatter and line plot showing aptamer detected Phe concentration (μM) as a function of time (hr) in serum samples from capillary blood of subject two and subject three having an oral load of 100 mg/kg at time zero.
This aptamer was used to detected Phe concentration (μM) as a function of time (hr) in serum samples from capillary blood of subject one and subject three that took 100 mg of phenylanine per kg body weight by mouth at time zero (see e.g., FIG. 11B). […] Every hour, blood was measured for the phenylalanine concentration. In a healthy subject, the enzymes that break down phenylalanine (e.g., phenylalanine hydroxylase (PAH) or BH4-cofactor, alone or together) are stimulated and break down phenylalanine resulting in decreased concentration (see 2-5 hr in FIG. 11B).

[3] = test system: phenylalanine complexed with Cu(II); test: amino acid selectivity of Cu(II) phenylalanine aptamers (RFU vs amino acid concentration); assay type: binding; conditions: for amino acid selectivity: Cu(II)
Description: (§1) FIG. 12A-FIG. 12D is a series of aptamer structures and scatter and line plots showing use thereof.
This aptamer sensor mixture (not including Cp*Rh) was incubated with concentrations of amino acids (Phe, Tyr, Trp, Gly) and fluorescence (RFU) measured (see e.g., FIG. 12B).

[4] = test system: amino acid complexed with Cp*Rh(III); test: amino acid selectivity of Cp*Rh(III)-amino acid binding aptamers in sensor form; conditions: Cp*Rh(III) derivatization agent
Source text: A series of aptamers were formed having an unbound nucleic acid pocket (see e.g., FIG. 7B-G).
An exemplary motif having a plurality of unpaired bases forming a pocket that binds a metal complex or an amino acid target molecule is shown in FIG. 8A. […]

[5] = amino acid selectivity of HPheA104 aptamer sensor (RFU vs amino acid concentration); assay type: binding
Description: as §1
This aptamer sensor mixture (not including Cp*Rh) was incubated with concentrations of amino acids (Phe, Trp, Tyr) and fluorescence (RFU) measured (see e.g., FIG. 12D).

Row | Compound | amino acid selectivity [4] | further results
1 | CN(Cc1ccccc1B(O)O)Cc1c2ccccc2c(CN(C)Cc2ccccc2B(O)O)c2ccccc12 [bis-boronic receptor] | – | Kd [1]: ~500 µM
2 | N[C@@H](Cc1ccccc1)C(=O)O [phenylalanine] | – | phenylalanine concentration in blood [2]: rises significantly
3 | CTCTCGGGACGACAGGTCCCTTTCGTAGATCGAGGAAGTATGTCGTCCC (listed as DNA, chemistry not fully specified) [Cu(II)-Phe10_49 nt, phenylalanine-Cu(II) complex aptamer] | – | amino acid selectivity [3]: Phe cross-reactive Trp
4 | CTCTCGGGACGACCGCGGTAGTCTTAACCTAAAGCGGTGTCAGGTCGTCCC (listed as DNA, chemistry not fully specified) [HTrp03, tryptophan-Cp*Rh(III) complex aptamer] | Trp selective | –
5 | CTCTCGGGACGACCGCGTTTCCCAAGAAAGCAAGTTTTGGTTGGTCGTCCC (aptamer; listed as DNA, chemistry not fully specified) [HPheA104] | – | amino acid selectivity [5]: Phe reactive; specificity among phenylalanine, tryptophan, tyrosine ([5]; sensor mixture not including Cp*Rh, FIG. 12D): Phe specificity is demonstrated
6 | CTCTCGGGACGACGACACGGGCGTCCCTTCACAAGGAGAGTGAGTCGTCCC (listed as DNA, chemistry not fully specified) [ARG01_Cp, arginine-Cp*Rh(III) complex aptamer] | Arg selective | –
7 | CTCTCGGGACGACGAGGCTGGATGCATTCGCCGGATGTTCGATGTCGTCCC (listed as DNA, chemistry not fully specified) [Cu(II)_Phe01, phenylalanine-Cu(II) complex aptamer] | – | amino acid selectivity [3]: Phe reactive; specificity among phenylalanine, tyrosine, tryptophan, glycine ([3]; sensor mixture not including Cp*Rh, FIG. 12B): Phe specificity is demonstrated
8 | CTCTCGGGACGACGCGGTGTGGATCCCTCGTAGAAGGAGTAGTGTCGTCCC (aptamer; listed as DNA, chemistry not fully specified) [LysCp05, lysine-Cp*Rh(III) complex aptamer] | Lys selective | –
9 | CTCTCGGGACGACGGACGCTAATCTTACAAGGGCGTAGTGTATGTCGTCCC (listed as DNA, chemistry not fully specified) [PACp*Rh01, phenylalanine-Cp*Rh(III) complex aptamer] | Phe cross-reactive Trp | –
10 | CTCTCGGGACGACGGCCCGATCTCAGAGTAGTCGTCCC (listed as DNA, chemistry not fully specified) [Tyr-Cp*Rh(38nt), tyrosine-Cp*Rh(III) complex aptamer] | Tyr selective | –
11 | CTCTCGGGACGACGGCGGGCGCGTATGTATATCATAAGGTGTAGTCGTCCC (aptamer; listed as DNA, chemistry not fully specified) [LeuCp17, leucine-Cp*Rh(III) complex aptamer] | selective for Leu over Ile | –
12 | CTCTCGGGACGACGGCGGGGAAACAGCTGCAAAATGTGGAGTAGTCGTCCC (Cp*Rh(III)-citrulline complex, further chemistry not given here) [CIT30N02_Cp*Rh, citrulline-Cp*Rh(III) complex aptamer] | citrulline non-selective | –
13 | CTCTCGGGACGACGGCGGGTGAATGCACACTTAGCAGAGAGTAGTCGTCCC (aptamer; listed as DNA, chemistry not fully specified) [GlutaCp02, glutamine-Cp*Rh(III) complex aptamer] | Gln selective | –
14 | CTCTCGGGACGACGGGCCACGTTTTCCAGGTACTTTCTAAGGGGTCGTCCC (aptamer; listed as DNA, chemistry not fully specified) [AspaCp03, asparagine-Cp*Rh(III) complex aptamer] | Asn selective | –
15 | CTCTCGGGACGACGGGCTAGGCGTGGGTGTAAAGGCACAGGGGTCGTCCC (listed as DNA, chemistry not fully specified) [Gly-Cp sensor, glycine-Cp*Rh(III) complex aptamer] | Gly selective | –
16 | CTCTCGGGACGACGGGTCAGTTAGACCGTGAGGCTTCCGAATAGTCGTCCC (aptamer; listed as DNA, chemistry not fully specified) [GLYHW-Cp*Rh06, glycine-Cp*Rh(III) complex aptamer] | Gly non-specific | –
17 | CTCTCGGGACGACGGGTGGGAGCGATTCGAGCTACTCAGGTATGTCGTCCC (aptamer; listed as DNA, chemistry not fully specified) [LysCp*Rh18, lysine-Cp*Rh(III) complex aptamer] | Lys non-selective | –

Source: US11034952B2, “Aptamer methods and compositions” (The Trustees of Columbia University in the City of New York, priority 2013, dated 2021)
